The values that follow come from PubChem BioAssay (NCI).

Among the test systems are EKVX NSCLC; MOLT-4 leukemia; ACHN renal; SK-MEL-2 melanoma; HT29 colon; OVCAR-8 ovarian; HOP-62 NSCLC; NCI-H460 lung; NCI-H23 lung.
What all share (test): NCI tumour cell line growth inhibition, 48 h

SMILES strings stand for the structures.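 All cell lines were grown in 96-well plates and treated with compound for 48 hours. Abbreviation: GI50, concentration required for 50% inhibition of growth. TGI denotes the concentration required for complete inhibition of growth.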 Some results are limits rather than exact numbers.

For `COc1ccc(-c2nc3sccn3c2/C(N)=N/C(=N)N)cc1OC`, the GI50 in the assay on EKVX NSCLC was 66.4 µM; in the assay on MOLT-4 leukemia it was 27.6 µM; in the assay with ACHN renal, more than 100 µM; in the assay on SK-MEL-2 melanoma it was 29.4 µM; with HT29 colon, 58.4 µM; in the assay with OVCAR-8 ovarian it was 43.8 µM. Further, the GI50 was 24.6 µM in the assay with HOP-62 NSCLC, 46.7 µM in the assay on NCI-H460 lung and more than 100 µM with NCI-H23 lung. Besides, the TGI in the assay on EKVX NSCLC, in the assay on MOLT-4 leukemia, with ACHN renal, in the assay on SK-MEL-2 melanoma, in the assay with HT29 colon and in the assay with OVCAR-8 ovarian was more than 100 µM each time. For the same compound, the TGI was 58.3 µM in the assay on HOP-62 NSCLC, more than 100 µM with NCI-H460 lung and more than 100 µM in the assay with NCI-H23 lung.

For the compound `Cc1ccc(C(=O)/C(=C/c2ccc([N+](=O)[O-])cc2)SCc2ccc(Cl)cc2)cc1`, the GI50 is 3.04 µM with EKVX NSCLC; 0.471 µM in the assay on MOLT-4 leukemia; 1.69 µM with ACHN renal; 15.8 µM with SK-MEL-2 melanoma; 0.676 µM with HT29 colon; 1.86 µM with OVCAR-8 ovarian. The GI50 in the assay on HOP-62 NSCLC is 29.7 µM; with NCI-H460 lung, 2.58 µM; in the assay with NCI-H23 lung, 2.73 µM. Besides, the TGI in the assay on EKVX NSCLC was 13.9 µM; with MOLT-4 leukemia, more than 100 µM; in the assay with ACHN renal it was 3.13 µM; in the assay on SK-MEL-2 melanoma, 63.2 µM; in the assay with HT29 colon, 2.86 µM; in the assay with OVCAR-8 ovarian it was 5.64 µM. For the same compound, the figures for the TGI with HOP-62 NSCLC, in the assay on NCI-H460 lung and in the assay on NCI-H23 lung were more than 100 µM, 12 µM and 20.7 µM, respectively.

Take `CC/C=C\CCC/C=C1/C(=O)C=C[C@@H]1C/C=C\CCCC(=O)OC`: the GI50 with EKVX NSCLC was 4.56 µM; in the assay with MOLT-4 leukemia, 2.43 µM; in the assay on ACHN renal, 2.13 µM; in the assay on SK-MEL-2 melanoma, 2.6 µM; in the assay with HT29 colon, 2.14 µM; in the assay on OVCAR-8 ovarian it was 3.71 µM. For the same compound, the figures for the GI50 in the assay with HOP-62 NSCLC, in the assay on NCI-H460 lung and in the assay on NCI-H23 lung were 3.54 µM, 3.9 µM and 3.23 µM, respectively. For the same compound, the TGI was determined as 15.6 µM in the assay on EKVX NSCLC; 8.39 µM in the assay on MOLT-4 leukemia; 4.43 µM in the assay with ACHN renal; 7.21 µM in the assay on SK-MEL-2 melanoma; 3.87 µM in the assay with HT29 colon; 12.8 µM with OVCAR-8 ovarian. Moreover, the TGI worked out at 11 µM with HOP-62 NSCLC, 14.2 µM with NCI-H460 lung and 10.8 µM in the assay with NCI-H23 lung.

In the case of `O=C(Nc1ccccc1)NS(=O)(=O)c1ccc(-n2nc3c(c2-c2cccs2)Cc2ccccc2-3)cc1`, the GI50 is 26.1 µM in the assay with EKVX NSCLC; 15.5 µM in the assay with MOLT-4 leukemia; 17.6 µM in the assay with ACHN renal; 70.1 µM in the assay with SK-MEL-2 melanoma; 26.7 µM in the assay with HT29 colon; 28.3 µM with OVCAR-8 ovarian. Further, the GI50 in the assay with HOP-62 NSCLC was 18.1 µM; with NCI-H460 lung, 18.9 µM; in the assay with NCI-H23 lung it was 12.2 µM. The TGI with EKVX NSCLC is 87.2 µM; in the assay with MOLT-4 leukemia it was more than 100 µM; in the assay with ACHN renal, 38 µM; in the assay on SK-MEL-2 melanoma, more than 100 µM; in the assay on HT29 colon it was more than 100 µM; with OVCAR-8 ovarian, more than 100 µM. Moreover, the TGI is 47 µM in the assay with HOP-62 NSCLC, more than 100 µM in the assay with NCI-H460 lung and 29.6 µM in the assay with NCI-H23 lung.

On to `COc1cc(-c2nn(-c3ccc(NC(=O)c4ccc(Cl)c(C(F)(F)F)c4)cc3)cc2-c2ccncc2)ccc1Cl`, for which the GI50 in the assay on EKVX NSCLC was 2.18 µM; in the assay on MOLT-4 leukemia it was 2.63 µM; with ACHN renal, 3.35 µM; in the assay on SK-MEL-2 melanoma, 3.12 µM; in the assay on HT29 colon it was 1.8 µM; with OVCAR-8 ovarian, 5.43 µM. In addition, the results for the GI50 in the assay on HOP-62 NSCLC, in the assay with NCI-H460 lung and in the assay on NCI-H23 lung were 2.07 µM, 3.43 µM and 3.06 µM, respectively. Further, the TGI in the assay on EKVX NSCLC was more than 65.1 µM; in the assay with MOLT-4 leukemia, 8.06 µM; in the assay with ACHN renal, more than 100 µM; in the assay on SK-MEL-2 melanoma, more than 28.5 µM; in the assay on HT29 colon, 4.25 µM; in the assay on OVCAR-8 ovarian it was more than 100 µM. The TGI is 7.07 µM in the assay on HOP-62 NSCLC, more than 100 µM in the assay on NCI-H460 lung and more than 100 µM in the assay on NCI-H23 lung.

In the case of `Cc1cc(I)cc(CN(C)CCCCN2CCCCC2)c1O`, the GI50 is 20.9 µM with EKVX NSCLC; 7.08 µM in the assay on MOLT-4 leukemia; 27.3 µM with ACHN renal; 13.8 µM in the assay with SK-MEL-2 melanoma; 3.21 µM in the assay with HT29 colon; 36.5 µM with OVCAR-8 ovarian. In addition, the GI50 with HOP-62 NSCLC is 14.4 µM; with NCI-H460 lung, 13.2 µM; in the assay with NCI-H23 lung it was 24.7 µM. Moreover, the TGI is 87.3 µM in the assay on EKVX NSCLC; 21.8 µM in the assay on MOLT-4 leukemia; 76.7 µM with ACHN renal; 29.2 µM in the assay on SK-MEL-2 melanoma; 14.2 µM in the assay with HT29 colon; more than 100 µM with OVCAR-8 ovarian. Further, the TGI is 28.3 µM in the assay with HOP-62 NSCLC, 26.7 µM in the assay on NCI-H460 lung and more than 100 µM in the assay on NCI-H23 lung.

With `Nc1ccccc1SC(C[N+](=O)[O-])c1ccc2c(c1)OCO2` (stereo not given), the TGI is 13.3 µM in the assay on EKVX NSCLC; 6.66 µM in the assay on MOLT-4 leukemia; 19 µM in the assay with ACHN renal; 27.7 µM in the assay on SK-MEL-2 melanoma; 3.81 µM with HT29 colon; 11 µM in the assay on OVCAR-8 ovarian. Further, the values for the TGI in the assay on HOP-62 NSCLC, in the assay on NCI-H460 lung and in the assay on NCI-H23 lung were 4.38 µM, 4.75 µM and 8.04 µM, respectively.

`O=C(/C=C/C12c3ccccc3C(c3ccccc31)C1C(=O)NC(=O)C12)c1ccncc1` (stereo not given): the GI50 with EKVX NSCLC is 6.02 µM; in the assay with MOLT-4 leukemia it was 2.57 µM; with ACHN renal it was 2.83 µM; in the assay on SK-MEL-2 melanoma it was 2.88 µM; in the assay on HT29 colon, 1.96 µM; with OVCAR-8 ovarian it was 2.41 µM. Besides, the GI50 in the assay with HOP-62 NSCLC is 2.4 µM; in the assay with NCI-H460 lung, 2.16 µM; in the assay with NCI-H23 lung, 2.09 µM. Further, the TGI came out at 20.8 µM in the assay with EKVX NSCLC; 9.17 µM in the assay on MOLT-4 leukemia; 8.39 µM in the assay with ACHN renal; 7.72 µM with SK-MEL-2 melanoma; 4.35 µM with HT29 colon; 8.2 µM in the assay with OVCAR-8 ovarian. Also, the TGI with HOP-62 NSCLC came to 6.73 µM; in the assay on NCI-H460 lung, 4.76 µM; in the assay with NCI-H23 lung, 4.45 µM.
